Series [1] deals with retroviruses such as an HIV. The settings on record: as disclosed in the Boyd et al. Patents; cited from earlier work.
The test system of another series is uninfected CEM-T4 cells. Kind of series: Toxicity to uninfected CEM-T4 cells (MTT assay). The settings on record: day 8, MTT. Type of series: cell-based. As to the method: The assays desirably measure the concentration of the multi-quinone that allows for 50% survival of CEM-T4 cells infected with HIV-1 and the concentration of multi-quinone that kills 50% of uninfected CEM-T4 cells. One skilled in the art will appreciate that other known assays or tests for determining antiviral activity may be used.
The chlorohydroxybiquinone was tested for anti-HIV activity by the CEM-T4 cytoprotection assay which measures the inhibition of viral cytopathogenic effects. CEM-T4 cells used for the assay were maintained in RPMI-1640 culture medium containing 2 millimoles L-glutamine and 25 millimoles HEPES, and supplemented with 10% fetal bovine serum, 50 units/milliliter of penicillin G, and 50 microgram/milliliter streptomycin sulfate. The antiviral assays were performed in 96-well tissue culture plates. Cells were treated with polybrene at a concentration of 2 microgram/milliliter, and 1×10^4 cells were dispensed into each well. Appropriate concentrations of the biquinone were prepared in sterile DMSO and diluted with culture medium to the desired concentrations. Each dilution of test compound was added to multiple wells of cells, and the cells were incubated at 37° C. for one hour. Cells were then infected at a multiplicity of infection of 0.025 TCID50/cell by the addition of a diluted stock of the HTLV-IIIB strain of HIV-1. […]
Assay plates were incubated at 37° C. in a humidified 5% carbon dioxide (CO2) atmosphere and examined microscopically for toxicity and/or cytopathogenic effect. Once the viral cytopathogenic effect was maximal (the eighth day post-infection), the surviving cells in each test well were quantified using the MTT assay known in the art and described in Pauwels et al., “Rapid and Automated Tetrazolium-based Colorimetric Assay for the Detection of Anti-HIV Compounds,” J. Virol. […] When a dose-dependent effect for either anti-HIV activity or cytotoxicity was observed, values for the 50% effective dose were calculated using the dose-effect analysis software of Chou and Chou, available from Elsevier-Biosoft.
A general note: Tetrazolium dyes change colour on reduction, which living cells bring about.

As for `CC(C)=CCC[C@]1(C)C=Cc2c(ccc3c2C(=O)C(O)=C(C2=C(C4=C(O)C(=O)c5c(ccc6c5C=C[C@@](C)(CCC=C(C)C)O6)C4=O)C(=O)c4c(ccc5c4C=C[C@@](C)(CCC=C(C)C)O5)C2=O)C3=O)O1` [conocurvone], the “antiviral activity (growth and replication of viruses)” value in series [1] is “inhibit the growth and replication of viruses”.
As for `COC1=C(C2=C(C3=C(O)C(=O)c4ccccc4C3=O)C(=O)c3ccccc3C2=O)C(=O)c2ccc3c(c2C1=O)C=CC(C)(C)O3` [trimeric quinone, 3-Hydroxy-3′-(9-methoxy-3,3-dimethyl-7,10-dioxo-7,10-dihydro-3H-benzo[f]chromen-8-yl)-2,2′-binaphthalenyl-1,4,1′,4′-tetraone], the “TD50 (concentration to cause reduction of cell growth by 50% of uninfected controls)” value in the series on uninfected CEM-T4 cells was 17 µM.
Same read-out and setting: then `COC1=C(C2=C(Cl)C(=O)c3ccccc3C2=O)C(=O)c2ccc3c(c2C1=O)C=C[C@@](C)(CCC=C(C)C)O3` [chloromethoxybiquinone, 8-(3-Chloro-1,4-dioxo-1,4-dihydro-napthalen-2-yl)-9-methoxy-3-methyl-3-(4-methyl-pent-3-enyl)-3H-benzo[f]chromene-7,10-dione], with 5.4 µM; and `CC(C)=CCC[C@]1(C)C=Cc2c(ccc3c2C(=O)C(O)=C(C2=C(Cl)C(=O)c4ccccc4C2=O)C3=O)O1` [chlorohydroxybiquinone, 8-(3-Chloro-1,4-dioxo-1,4-dihydronapthalen-2-yl)-9-hydroxy-3-methyl-3-(4-methyl-pent-3-enyl)-3H-benzo[f]chromene-7,10-dione], with 2.7 µM.

Values taken from patent US6828347B2, “Anti-viral multi-quinone compounds and regiospecific synthesis thereof” (Illinois Institute of Technology, priority 2002, dated 2004).
